Assay [1] has as its target T1, human recombinant P2X7 receptors (Homo sapiens, UniProt Q99572).
T1 construct: expressed in transfected cells
T1 sequence (Q99572 1-595): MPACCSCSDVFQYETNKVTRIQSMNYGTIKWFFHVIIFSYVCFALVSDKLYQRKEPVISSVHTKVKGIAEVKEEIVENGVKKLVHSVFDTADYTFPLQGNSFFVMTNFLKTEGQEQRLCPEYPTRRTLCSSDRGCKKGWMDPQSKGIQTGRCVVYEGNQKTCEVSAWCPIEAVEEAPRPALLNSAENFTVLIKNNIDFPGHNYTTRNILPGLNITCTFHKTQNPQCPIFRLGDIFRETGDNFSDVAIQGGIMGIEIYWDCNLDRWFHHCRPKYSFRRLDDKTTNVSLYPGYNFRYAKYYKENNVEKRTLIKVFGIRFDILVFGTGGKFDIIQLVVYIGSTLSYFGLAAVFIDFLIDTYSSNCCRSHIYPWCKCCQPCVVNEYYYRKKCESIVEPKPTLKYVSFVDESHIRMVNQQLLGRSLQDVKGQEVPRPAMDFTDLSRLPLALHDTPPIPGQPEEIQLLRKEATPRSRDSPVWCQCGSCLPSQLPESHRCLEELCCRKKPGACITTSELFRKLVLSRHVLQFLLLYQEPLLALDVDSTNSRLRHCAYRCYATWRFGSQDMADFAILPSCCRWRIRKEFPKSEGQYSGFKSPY
The assay can be described thus: Fluorescent Imaging Plate Reader (FLIPR) Ca Assay. The class given is cell-based. The conditions noted are these: blocking BzATP (60 μM) responses; HEK293 or U-2OS cells expressing human P2X7; read-out: pIC50 in the FLIPR Ca Assay (or a slightly modified version thereof), human P2X7 receptor antagonist activity (converted). The protocol:
Studies were performed using NaCl assay buffer of the following composition for human P2X7: 137 mM NaCl; 20 mM HEPES [4-(2-hydroxyethyl)-1-piperazine-1-ethanesulfonic acid]; 5.37 mM KCl; 4.17 mM NaHCO3; 1 mM CaCl2; 0.5 mM MgSO4; and 1 g/L of D-glucose (pH 7.4).
Human Embryonic Kidney (HEK) 293 cells, stably expressing human recombinant P2X7 receptors, were grown in poly-D-lysine pretreated 384 well plates for 24 hours at […] (for a time sufficient for growth of a homogeneous layer of cells at the bottom of the wells). Alternatively, human osteosarcoma (U-20S) cells (commercially available), transduced with modified Baculovirus (BacMam) vector to deliver the gene coding for human P2X7 receptor (i.e. transiently expressing human recombinant P2X7 receptors), were grown in substantially the same conditions as for the HEK293 cells except that the well plates were not pre-treated with poly-D-lysine. (The cloning of the human P2X7 receptor is described in U.S. Pat. No. 6,133,434, e.g. see Example 3 therein). The cells were washed three times with 80 μl of assay buffer, loaded for 1 h at 37° C. with 2 μM Fluo-4-AM [4-(6-acetoxymethoxy-2,7-difluoro-3-oxo-9-xanthenyl)-4′-methyl-2,2′-(ethylenedioxy)dianiline-N,N,N′,N′-tetraacetic acid tetrakis(acetoxymethyl) ester], a Ca^2+-sensitive, cell-permeable, fluorescent dye (Tef Labs. Inc., 9415 Capitol View Drive, Austin, Tex. 78747, USA), washed three times again (3×80 μl), and left with 30 μl buffer before the addition of 10 μl of the assay buffer containing the putative P2X7 receptor antagonist compound, the compound being added at 4× the final assay concentration chosen. The solution of the putative P2X7 receptor antagonist compound was created by (i) dissolving the compound in dimethyl sulfoxide (DMSO) to create a stock solution in DMSO at 200× the final assay concentration, and (ii) mixing 1 μl of the stock solution of the compound in DMSO with 50 μl of the assay buffer to create a solution at about 4× the final assay concentration. The cells were then incubated at room temperature for 30 mins before addition (online, by FLIPR384 or FLIPR3 instrument (Molecular Devices, 1311 Orleans Drive, Sunnyvale, Calif. 94089-1136, USA)) of benzoylbenzoyl-ATP (BzATP) such as to create a 60 μM final assay concentration of BzATP (BzATP was added at 5× this final concentration). The BzATP concentration was chosen to be close to the EC80 for the receptor type. Incubations and reading were continued for 90 sec, and intracellular calcium increase was determined by measuring fluorescence (excitation wavelength of 488 nm and emission wavelength of 516 nm) from below the plate, with FLIPR charged-coupled device (CCD) camera. Antagonist pIC50 values for blocking BzATP responses were determined using iterative curve fitting techniques.

Assay [2] addresses T1, human recombinant P2X7 receptors. As to the kind of experiment: Ethidium Accumulation Assay. The class given is cell-based. The settings on record: blocking ATP (1 mM) responses; HEK293 cells expressing human P2X7; read-out: pIC50 in the Ethidium Accumulation Assay (or a slightly modified version thereof), human P2X7 receptor antagonist activity (converted). The protocol: Studies were performed using NaCl assay buffer of the following composition: 140 mM NaCl, 10 mM HEPES [4-(2-hydroxyethyl)-1-piperazine-1-ethanesulfonic acid], 5 mM N-methyl-D-glucamine, 5.6 mM KCl, 10 mM D-glucose, 0.5 mM CaCl2 (pH 7.4).
Human Embryonic Kidney (HEK) 293 cells, stably expressing human recombinant P2X7 receptors, were grown in poly-D-lysine pretreated 96 well plates for 18-24 hours. (The cloning of the human P2X7 receptor is described in U.S. Pat. No. 6,133,434, e.g. see Example 3 therein). The cells were washed twice with 350 μl of the assay buffer, before addition of 50 μl of the assay buffer containing the putative P2X7 receptor antagonist compound. (A small amount of dimethyl sulfoxide, for initially dissolving the compound, is optionally used and present in this 50 μl test compound sample.) The cells were then incubated at room temperature (19-21° C.) for 30 min before addition of ATP and ethidium (100 μM final assay concentration). The ATP concentration was chosen to be close to the EC80 for the receptor type and was 1 mM for studies on the human P2X7 receptor. Incubations were continued for 8 or 16 min and were terminated by addition of 25 μl of 1.3M sucrose containing 4 mM of the P2X7 receptor antagonist Reactive Black 5 (Aldrich). Cellular accumulation of ethidium was determined by measuring fluorescence (excitation wavelength of 530 nm and emission wavelength of 620 nm) from below the plate with a Canberra Packard Fluorocount (14 Station Road, Pangbourne, Reading, Berkshire RG8 7AN, United Kingdom) or a FlexStation II 384 from Molecular Molecular Devices (660-665 Eskdale Road, Wokingham, Berkshire RG41 5TS, United Kingdom). Antagonist pIC50 values for blocking ATP responses were determined using iterative curve fitting techniques.

Experimental findings from US20100292295A1, “5-OXO-3-PYRROLIDINECARBOXAMIDE DERIVATIVES AS P2X7 MODULATORS” (GLAXO GROUP LIMITED, priority 2007, published 2010) are described below.

Values joined by “and” are separate entries in the source; they are usually repeats but may differ in a detail not shown here. Equal entries are not always repeated.

Regarding `C[C@H](c1ccccc1)N1CC(C(=O)NCc2ccc(F)cc2Cl)CC1=O` (stereo partly drawn) [Example 1, N-[(2-chloro-4-fluorophenyl)methyl]-5-oxo-1-[(1R)-1-phenylethyl]-3-pyrrolidinecarboxamide], the IC50 was at most 20000 nM in assay [1] and under 3160 nM in assay [2].

As to `CN1CC(C(=O)NCc2cccc(C(F)(F)F)c2Cl)CC1=O` (centres unmarked) [Example 5, N-{[2-chloro-3-(trifluoromethyl)phenyl]methyl}-1-methyl-5-oxo-3-pyrrolidinecarboxamide], the IC50 is at most 20000 nM in assay [1]; < 3160 nM and 31.6 to 316 nM and 50.1 to 63.1 nM in assay [2].

Regarding `O=C(NCc1ccc(Cl)cc1Cl)C1CC(=O)N(Cc2ccccc2)C1` (centres unmarked) [Example 12, N-[(2,4-dichlorophenyl)methyl]-5-oxo-1-(phenylmethyl)-3-pyrrolidinecarboxamide], the IC50 in assay [1] is at most 20000 nM; in assay [2] it was < 3160 nM and 31.6 to 316 nM.

Take `CN1CC(C(=O)NCc2ccc(Cl)cc2Cl)CC1=O` (centres unmarked) [Example 6, N-[(2,4-dichlorophenyl)methyl]-1-methyl-5-oxo-3-pyrrolidinecarboxamide]: the IC50 in assay [1] was at most 20000 nM; in assay [2], < 3160 nM and 31.6 to 316 nM.

As for `CC(C)CN1CC(C(=O)NCc2cccc(C(F)(F)F)c2Cl)CC1=O` (centres unmarked) [Example 9, N-{[2-chloro-3-(trifluoromethyl)phenyl]methyl}-1-(2-methylpropyl)-5-oxo-3-pyrrolidinecarboxamide], the IC50 was at most 20000 nM in assay [1]; < 3160 nM and 31.6 to 316 nM in assay [2].

For the compound `CN1CC(C(=O)NCc2cccc(C(F)(F)F)c2Cl)CC1=O` (single isomer, unassigned) [5A stereoisomer 2], the IC50 in assay [2] is 39.8 to 50.1 nM.

With `CCN1CC(C(=O)NCc2cccc(C(F)(F)F)c2Cl)CC1=O` (centres unmarked) [Example 8, N-{[2-chloro-3-(trifluoromethyl)phenyl]methyl}-1-ethyl-5-oxo-3-pyrrolidinecarboxamide], the IC50 in assay [1] was at most 20000 nM; in assay [2] it was < 3160 nM and 31.6 to 316 nM.

On to `O=C(NCc1cccc(C(F)(F)F)c1Cl)C1CC(=O)N(Cc2ccccc2)C1` (centres unmarked) [Example 11, N-{[2-chloro-3-(trifluoromethyl)phenyl]methyl}-5-oxo-1-(phenylmethyl)-3-pyrrolidinecarboxamide], for which the IC50 in assay [1] was at most 20000 nM; in assay [2], < 3160 nM and 31.6 to 316 nM.

For `CN1CC(C(=O)NCc2cccc(C(F)(F)F)c2Cl)CC1=O` (single isomer, unassigned) [5A stereoisomer 1], the IC50 in assay [2] was 158 to 200 nM.

As to `CC(C)CN1CC(C(=O)NCc2ccc(Cl)cc2Cl)CC1=O` (centres unmarked) [Example 10, N-[(2,4-dichlorophenyl)methyl]-1-(2-methylpropyl)-5-oxo-3-pyrrolidinecarboxamide], the IC50 in assay [1] was at most 20000 nM; in assay [2] it was < 3160 nM and 31.6 to 316 nM.

For the compound `CCN1CC(C(=O)NCc2ccc(Cl)cc2Cl)CC1=O` (centres unmarked) [Example 7, N-[(2,4-dichlorophenyl)methyl]-1-ethyl-5-oxo-3-pyrrolidinecarboxamide], the IC50 in assay [1] is at most 20000 nM; in assay [2], < 3160 nM and 31.6 to 316 nM.

Regarding `O=C(NCc1ccc(Cl)cc1Cl)C1CC(=O)N(C2CC2)C1` (centres unmarked) [Example 3, 1-Cyclopropyl-N-[(2,4-dichlorophenyl)methyl]-5-oxo-3-pyrrolidinecarboxamide], the IC50 in assay [1] is at most 20000 nM; in assay [2], < 3160 nM and 31.6 to 316 nM.

Take `O=C(NCc1cccc(C(F)(F)F)c1Cl)C1CC(=O)N(C2CC2)C1` (centres unmarked) [Example 4, N-{[2-chloro-3-(trifluoromethyl)phenyl]methyl}-1-cyclopropyl-5-oxo-3-pyrrolidinecarboxamide]: the IC50 in assay [1] is at most 20000 nM; in assay [2], < 3160 nM and 31.6 to 316 nM.

For the compound `O=C(NCc1ccc(F)cc1Cl)C1CC(=O)N(C2CC2)C1` (centres unmarked) [Example 2, N-[(2-Chloro-4-fluorophenyl)methyl]-1-cyclopropyl-5-oxo-3-pyrrolidinecarboxamide], the IC50 in assay [1] was at most 20000 nM; in assay [2], under 3160 nM.
